Results taken from PubChem BioAssay AID330 (DTP/NCI, 2004).
Inconclusive results and toxic doses are left out. How the source made its calls: active means survival T/C of 150% or more; inactive means T/C below 125% in these data.

System: P388 leukemia ip, CD2F1 mice, survival T/C
Assay: NCI In Vivo Anticancer Drug Screen. Data for tumor model P388 Leukemia (intraperitoneal) in CD2F1 (CDF1) mice
Conditions: endpoint: median survival time, higher = longer survival
Procedure, shortened: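 Mice carrying the transplanted tumor received test compound or vehicle. Survival was recorded in each group, and the value is the treated-group measurement divided by that of the vehicle-treated control group.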

Measured: T/C

CC1(C)c2ccccc2C(=O)c2ccccc21
inactive: dose: 50.0 mg/kg/injection, schedule: Q01DX005 (ip), vehicle: saline with Tween-80 103 % of control | dose: 100.0 mg/kg/injection, schedule: Q01DX005 (ip), vehicle: saline with Tween-80 100 % of control | dose: 200.0 mg/kg/injection, schedule: Q01DX005 (ip), vehicle: saline with Tween-80 103 % of control

S=P1(Oc2ccccc2)Nc2cccc3cccc(c23)N1
inactive: dose: 25.0 mg/kg/injection, schedule: Q01DX005 (ip), vehicle: Klucel (hydroxypropylcellulose) (HPC) 98 % of control | dose: 50.0 mg/kg/injection, schedule: Q01DX005 (ip), vehicle: Klucel (hydroxypropylcellulose) (HPC) 106 % of control | dose: 100.0 mg/kg/injection, schedule: Q01DX005 (ip), vehicle: Klucel (hydroxypropylcellulose) (HPC) 102 % of control | dose: 200.0 mg/kg/injection, schedule: Q01DX005 (ip), vehicle: Klucel (hydroxypropylcellulose) (HPC) 103 % of control

CC(N)CCc1ccccc1 (configuration not stated)
inactive: dose: 12.5 mg/kg/injection, schedule: Q01DX009 (ip), vehicle: saline sonified 100 % of control | dose: 25.0 mg/kg/injection, schedule: Q01DX009 (ip), vehicle: saline sonified 100 % of control | dose: 50.0 mg/kg/injection, schedule: Q01DX009 (ip), vehicle: saline sonified 100 % of control

CN1CCCC2c3ccccc3CCC21 (configuration not stated)
inactive: dose: 12.5 mg/kg/injection, schedule: Q04DX003 (ip), vehicle: Klucel (hydroxypropylcellulose) (HPC) 104 % of control | dose: 25.0 mg/kg/injection, schedule: Q04DX003 (ip), vehicle: Klucel (hydroxypropylcellulose) (HPC) 101 % of control

COc1ccc(C(OCC2CC3CCC2C3)OCC2CC3CCC2C3)cc1 (configuration not stated)
inactive: dose: 12.5 mg/kg/injection, schedule: Q01DX009 (ip), vehicle: other 114 % of control | dose: 25.0 mg/kg/injection, schedule: Q01DX009 (ip), vehicle: other 111 % of control | dose: 50.0 mg/kg/injection, schedule: Q01DX009 (ip), vehicle: other 110 % of control | dose: 100.0 mg/kg/injection, schedule: Q01DX009 (ip), vehicle: other 111 % of control | dose: 200.0 mg/kg/injection, schedule: Q01DX009 (ip), vehicle: other 111 % of control
